# Data as given in paper PMC3499368, “Evolution of Minimal Specificity and Promiscuity in Steroid Hormone Receptors” (PLoS Genetics, 2012).
# Where two headings read alike, the source gives them in different places.
# Tests used:
# Format in all cases: cell-based
# AncSR1-LBD = test: luciferase reporter gene assay, Gal4-DBD fusion of AncSR1-LBD in CHO-K1 cells, activation; details: for activation of AncSR1 (in words): luciferase reporter; for activation (in words): fold activation at 10^-6 M, Fig. S5C; for Ratio H1/H2 of EC50, preference for aromatized A-ring / Ratio H2/H1 of EC50, preference for aromatized A-ring: AncSR1, Table S5 section b, pairs H1/H2: 18/19, 22/20, 8/23, listed as given under Hormone 1
# Excerpt: (§1) To experimentally test these hypotheses, we synthesized cDNAs for the AncSR1 and AncSR2 LBD protein sequences, expressed them as Gal4-DBD fusion constructs, and characterized their sensitivity to hormones using luciferase reporter gene assays.
# AncSR2-LBD = test: luciferase reporter gene assay, Gal4-DBD fusion of AncSR2-LBD in CHO-K1 cells, activation; details: for activation of AncSR2 (in words): luciferase reporter; for EC50: AncSR2, representative dose activation curves (Fig. S4) and Table S5 sections c-i; for Ratio H1/H2 of EC50, preference for 17-acetyl vs. 17-hydroxy group / Ratio H2/H1 of EC50, preference for 17-acetyl vs. 17-hydroxy group: AncSR2, Table S5 section d, pairs H1/H2: 13/6, 17/8, 15/9, 16/10, 19/23; for Ratio H1/H2 of EC50, preference for 19-H vs. 19-methyl group / Ratio H2/H1 of EC50, preference for 19-H vs. 19-methyl group: AncSR2, Table S5 section i, pairs H1/H2: 8/6, 17/13, 18/15
# Excerpt: as §1, with “assays. […] It was unresponsive to a broad array of androgens, progestagens, and corticosteroids, as well as cholesterol (Figure 2A, Figure S3).” for “assays.”
# For AncSR2, we identified all plausible alternate reconstructions (those with posterior probability >0.20 excluding biochemically similar K/R, D/E, S/T, and I/L differences) and introduced each alternate state individually into the AncSR2 background using the Quikchange Mutagenesis kit (Stratagene), verified clones by sequencing, and repeated the activation assays with each version of AncSR2 (Figure S6). The ML AncSR2 sequence reconstructed on the ML tree had high baseline activation in the absence of ligand; this phenotype is almost certainly an artifact, because constitutive baseline activity is not present in any of AncSR2's extant descendants; it is well-established that some amino acid replacements can cause nuclear receptors to become constitutive by marginally stabilizing the active conformation in the absence of hormone. […] The “constitutive” Leu79 state is weakly supported on the ML tree (PP = 0.59), and has no support (PP = 0.00) on the phylogeny that is most parsimonious in terms of gene duplications and losses; in contrast, the “non-constitutive” state Met79 has PP = 0.41 on the ML tree and PP = 1.00 on the rearranged gene duplication/loss tree (Figure S12, Table S8). The AncSR2 sequence used for all experiments reported in the text therefore contains state Met79. The other alternate reconstructions were then reintroduced into this AncSR2 sequence: none qualitatively changed the receptor's sensitivity to the various classes of steroid hormones, except for A171V, which conferred constitutive activity (Figure S6).
# AncSR1_Alt1 = test: luciferase reporter assay, alternative reconstruction AncSR1_Alt1; details: for activation (in words): Alt1, fold activation at 10^-6 M, Fig. S5C
# Excerpt: (§2) To determine the robustness of functional inferences to statistical uncertainty in the reconstruction of AncSR1 and AncSR2, we used two approaches. AncSR1 had too many ambiguously reconstructed sites to examine each such residue individually, so we computationally sampled from the posterior probability distribution of reconstructed amino acid states to generate a cloud of possible ancestral sequences, each harboring a large number of alternate states. Specifically, we generated 1,000,000 possible ancestral sequences by sampling from the posterior probability distribution of states at each site. […] We synthesized these five radically alternative ancestral reconstructions de novo and repeated the functional assays.
# (§3) A) Distribution of posterior probabilities of 1 million protein sequences assembled by sampling amino acid states at each site from the posterior probability distribution for AncSR1 LBD. The ML reconstruction (AncSR1-ML) and the five alternative sequences with the highest posterior probability (Alt1-Alt5) in the 1 million samples are […]
# (§4) The column height and error bars indicate the mean and SEM of three independent experiments, respectively. […]
# AncSR1_Alt2 = test: luciferase reporter assay, alternative reconstruction AncSR1_Alt2; details: for activation (in words): Alt2, fold activation at 10^-6 M, Fig. S5C
# Excerpt: as §2, §3, §4
# AncSR1_Alt3 = test: luciferase reporter assay, alternative reconstruction AncSR1_Alt3; details: for activation (in words): Alt3, fold activation at 10^-6 M, Fig. S5C
# Excerpt: as §2, §3, §4
# AncSR1_Alt4 = test: luciferase reporter assay, alternative reconstruction AncSR1_Alt4; details: for activation (in words): Alt4, fold activation at 10^-6 M, Fig. S5C
# Excerpt: as §2, §3, §4
# AncSR1_Alt5 = test: luciferase reporter assay, alternative reconstruction AncSR1_Alt5; details: for activation (in words): Alt5, fold activation at 10^-6 M, Fig. S5C
# Excerpt: as §2, §3, §4
# [1] = AncSR2, Table S5 section h, pairs H1/H2: 3/4, 6/7, listed as given under Hormone 1
# [2] = AncSR1, representative dose activation curves (Fig. S3) and Table S5 section b
# [3] = listed as given under Hormone 1
# [4] = AncSR2, Table S5 section e, pairs H1/H2: 18/17, 9/6, 15/13, listed as given under Hormone 1
structure (smiles),measurement,setting,value
O=c1c(-c2ccc(O)cc2)coc2cc(O)cc(O)c12 [Genistein],activation of AncSR1 (in words),AncSR1-LBD,activated
same,activation of AncSR2 (in words),AncSR2-LBD,not activated
CC(C)CCC[C@@H](C)[C@H]1CC[C@H]2[C@@H]3CC=C4C[C@@H](O)CC[C@]4(C)[C@H]3CC[C@]12C [cholesterol],activation of AncSR1 (in words),AncSR1-LBD,unresponsive
same,activation of AncSR2 (in words),AncSR2-LBD,completely unresponsive
C[C@]12C[C@H](O)[C@H]3[C@@H](CCC4=CC(=O)CC[C@@]43C)[C@@H]1CC[C@@H]2C(=O)CO [corticosterone],"Ratio H1/H2 of EC50, preference for 17a-H group vs. -OH group",AncSR2-LBD; [1],0.03
same,"Ratio H2/H1 of EC50, preference for 17a-H group vs. -OH group",AncSR2-LBD; [1],31.61
same,EC50,AncSR2-LBD; read-out: EC50,0.31 nM
CC/C(=C(/CC)c1ccc(O)cc1)c1ccc(O)cc1 [Diethylstilbestrol],activation of AncSR1 (in words),AncSR1-LBD,activated
same,activation of AncSR2 (in words),AncSR2-LBD,not activated
C[C@]12CCC(=O)C[C@@H]1CC[C@@H]1[C@@H]2CC[C@]2(C)[C@@H](O)CC[C@@H]12 [dihydrotestosterone],activation (in words),AncSR1-LBD; AncSR1-ML,none are activated
same,EC50,AncSR2-LBD,172 nM
same,activation (in words),AncSR1_Alt1,none are activated
same,activation (in words),AncSR1_Alt2,none are activated
same,activation (in words),AncSR1_Alt3,none are activated
same,activation (in words),AncSR1_Alt4,none are activated
same,activation (in words),AncSR1_Alt5,none are activated
C[C@]12CCC(=O)C=C1CC[C@@H]1[C@@H]2[C@@H](O)C[C@]2(C=O)[C@@H](C(=O)CO)CC[C@@H]12 [aldosterone],EC50,AncSR2-LBD; read-out: EC50,1.9 nM
C[C@]12CC[C@@H]3c4ccc(O)cc4CC[C@H]3[C@@H]1CCC2=O [estrone],EC50,AncSR1-LBD; [2],69 nM
same,EC50,"AncSR1-LBD; AncSR1-ML, Fig. S5B",208 nM
same,EC50,"AncSR1_Alt1; Alt1, Fig. S5B",133 nM
same,EC50,"AncSR1_Alt2; Alt2, Fig. S5B",3000 nM
same,EC50,"AncSR1_Alt3; Alt3, Fig. S5B",42 nM
same,EC50,"AncSR1_Alt4; Alt4, Fig. S5B",844 nM
same,EC50,"AncSR1_Alt5; Alt5, Fig. S5B",223 nM
CC(=O)C1CCC2C3CC=C4CC(O)CCC4(C)C3CCC12C (stereo not drawn) [5-pregnenolone],EC50,AncSR2-LBD; read-out: EC50,3.8 nM
C[C@]12CC[C@H]3[C@@H](CCC4=CC(=O)CC[C@@]43C)[C@@H]1CC[C@@H]2O [testosterone],activation (in words),AncSR1-LBD; AncSR1-ML,none are activated
same,"Ratio H1/H2 of EC50, preference for 17-acetyl vs. 17-hydroxy group",AncSR2-LBD; [3],21.09
same,"Ratio H2/H1 of EC50, preference for 17-acetyl vs. 17-hydroxy group",AncSR2-LBD; [3],0.05
same,EC50,AncSR2-LBD,116 nM
same,activation (in words),AncSR1_Alt1,none are activated
same,activation (in words),AncSR1_Alt2,none are activated
same,activation (in words),AncSR1_Alt3,none are activated
same,activation (in words),AncSR1_Alt4,none are activated
same,activation (in words),AncSR1_Alt5,none are activated
C[C@]12CCC(=O)C=C1CC[C@@H]1[C@@H]2CC[C@]2(C)C(=O)CC[C@@H]12 [4-androstenedione],"Ratio H1/H2 of EC50, preference for aromatized A-ring",AncSR1-LBD,144.93
same,"Ratio H2/H1 of EC50, preference for aromatized A-ring",AncSR1-LBD,0.01
same,EC50,AncSR1-LBD; [2],> 10000 nM
same,EC50,AncSR2-LBD,411 nM
CC12CCC3C4CCC(O)C=C4CCC3C1CCC2O (stereo not drawn) [bolandiol],"Ratio H1/H2 of EC50, preference for aromatized A-ring",AncSR1-LBD,36.02
same,"Ratio H2/H1 of EC50, preference for aromatized A-ring",AncSR1-LBD,0.03
same,EC50,AncSR1-LBD; [2],1760 nM
same,"Ratio H1/H2 of EC50, preference for 3-hydroxy vs. 3-keto group",AncSR2-LBD; [4],0.29
same,"Ratio H2/H1 of EC50, preference for 3-hydroxy vs. 3-keto group",AncSR2-LBD; [4],3.45
same,"Ratio H1/H2 of EC50, preference for 19-H vs. 19-methyl group",AncSR2-LBD; [3],0.08
same,"Ratio H2/H1 of EC50, preference for 19-H vs. 19-methyl group",AncSR2-LBD; [3],13.10
same,EC50,AncSR2-LBD,20 nM
CC12CCC3C4CCC(=O)C=C4CCC3C1CCC2O (stereo not drawn) [19-nortestosterone],"Ratio H1/H2 of EC50, preference for 17-acetyl vs. 17-hydroxy group",AncSR2-LBD; [3],43.13
same,"Ratio H2/H1 of EC50, preference for 17-acetyl vs. 17-hydroxy group",AncSR2-LBD; [3],0.02
same,"Ratio H1/H2 of EC50, preference for 19-H vs. 19-methyl group",AncSR2-LBD; [3],0.59
same,"Ratio H2/H1 of EC50, preference for 19-H vs. 19-methyl group",AncSR2-LBD; [3],1.68
same,EC50,AncSR2-LBD,69 nM
